According to patent publication US6723712B2, “Antiviral agent for use in treatment of cancer” (Institut Gustave Roussy, priority 1999, dated 2004):
Entries after “also recorded” stand apart in the source; their conditions may differ.

Tests used:
C15 tumors = assay: Apoptosis assay (FACS, propidium iodide) in C15; type: in vivo, human; conditions: C15, Cidofovir combined with irradiation
Procedure: (§1) a, RAJI cells were cultured in the presence of Cidofovir (5 and 10 μg/ml) and irrediated […] with 3 Gy and then assayed for apoptosis by FACS analysis. C15 tumors were injected intra-tumorally for 5 days with Cidofovir ([…]) and received 7 Gy on day 3 and 5. Animals were sacrified on day 7 and tumors were dissected and prepared for FACS analysis of propidium-iodide nuclei staining as described above.
(§2) The cell cycle distribution was estimated by staining ethanol-fixed cells with propidium iodide and monitoring by FACScan flow cytometer (Becton Dickinson) using cellQuest software. Briefly, 1×10^6 cells were cultured without or with 5 and 10 μg/ml of Cidofovir, 24 hours later cells were irradiated with 3 and 6 Gy and collected 12 and 24 hours after irradiation. The percentage of apoptotic cells was determined by sub-G1 peak.

human cancer cells = assay: Combination with chemotherapeutic drugs, tumor cell growth; type: cell-based; conditions: in vitro
Procedure: Similar experiments combining a nucleoside analogue with cytotoxic agents other than irradiation were performed (chemotherapeutic drugs, cytokines). The example presented herewith relates to the combination of cidofovir with chemotherapeutic drugs which was evaluated in vitro and in vivo in various virus-associated and non virus-associated human cancers.

EBV and HPV cancer cells = assay: Radiation-induced DNA repair by Fluorescence In Situ Hybridization (FISH); type: cell-based, human; conditions: FISH (data not shown)
From the text: Cidofovir is a potent inhibitor of the replication of EBV and HPV in cell culture. In addition, the incorporation into the cellular DNA of the infected cell may disrupt the genomic integrity and enhance susceptibility to apoptosis or necrosis.

RAJI cells = assay: Apoptosis assay (FACS, sub-G1 peak) in RAJI cells; type: cell-based, human; conditions: Cidofovir 10 μg/ml combined with irradiation (3 and 6 Gy)
Procedure: as §1, §2

[1] = system: cervical carcinoma xenografts; conditions: cited from earlier work
p53 [2] = assay: Immunoblot densitometry of p53 in HTB33 cells; type: cell-based, human; conditions: HTB33, Cidofovir 10 μg/ml, scored 1 without Cidofovir
Procedure: (§3) a2b2 HEP2 (a) and HTB33 (b) cells were cultured in the presence or absence of Cidofovir (10 μg/ml) for 3 and 6 days, and cells were collected in exponential phase, lysed and total protein were immunoblotted with the Ab-1 anti-E7, C1P5 […], and DO7 anti-p53. The blots were stripped and re-probed with a monoclonal β-actin antibody.
(§4) To prepare total proteins, cells lysates were extracted with lysis buffer 50 mM tris, pH 8, 120 mM NaCl, 0,1% SDS, and 0,5% NP-40. The protein concentration in the soluble fraction was determined by using a BioRad protein assay reagent. The viral oncoprotein LMP1 was detected by immunoblotting with a monoclonal anti-LMP1 antibody (clone CS1,CS2,CS3 & CS4 cocktail, RDI). The following antibodies were used: anti-Bcl2 (clone 100 Santa Cruz Biotechnology), anti-Bax (clone B-9, Santa Cruz, anti-E6 (clone CIP5, abcam), anti-E7 (clone Ab-1, oncogene), anti-p53 (clone DO7, Dako). Anti β-actin (clone AC-40, Sigma) was used to control protein loading. Autoradiograms of the Western blot were scanned with the Gil doc 1000 image scanner (Bio-rad, Hercules, Calif.) and densitometric analysis of the bands was performed using the molecular analyst software program (Bio-rad, Hercules, Calif.).

[3] = system: EBV+ and HPV+ cell lines (C15, Raji, HTB33, HEP2); assay: Clonogenic survival and proliferation test with irradiation, EBV+ and HPV+ cell lines; type: cell-based, human; conditions: cidofovir 1 to 10 μg/ml combined with irradiation, virus-related cells
Procedure: (§5) Irradiation of cells was performed using a ^137Cs γ-rays source at a dose rate of 1.45 Gy.min^−1. Briefly survival curves were obtained by irradiating cells (0 to 6 Gy). The linear-quadratic model was used for fitting survival curves. Quantification of radiosensitivity was obtained by the surviving fraction at 2 Gy (SF2). Cell survival was also assessed by using proliferation tests (incorporation of tritiated thymidine and MTT). Irradiation of animals was performed using a 200 kv apparatus.
(§6) It was studied in EBV+ human carcinoma C15 cells, EBV+ lymphoma Raji cells, 2 HPV+ carcinoma HTB33 and HEP2 cells. The effect of the combination was also studied in 3 human cell lines lacking the viral infection namely Ramos (lymphoma) HTB31 and SCC97 (carcinoma) cells.
(§7) For each cell line, several concentrations of cidofovir were used in vitro in combination with irradiation (between 1 and 10 μg/ml). The effect of the combined treatment was evaluated using both a proliferation test and a clonogenic assay for cell survival.

E7 = assay: Immunoblot of E7 in HPV+ HTB33 and HEP2 cells; type: cell-based; conditions: HPV+ cells exposed to Cidofovir 10 μg/ml
Procedure: as §3, §4

p53 [4] = assay: Immunoblot densitometry of p53 in HEP2 cells; type: cell-based, human; conditions: HEP2, Cidofovir 10 μg/ml, scored 1 without Cidofovir
Procedure: as §3, §4

LMP-1 [5] = assay: Western blot of LMP-1 in RAJI cells; type: cell-based, EBV
Procedure: b, RAJI cells were cultured in the presence or absence of Ciodofovir (10 μg/ml). […] For C15, at day 7 portions of tumors where lysed in RIPA buffer and protein extracts were immunoblotted with anti-LMP-1 antibody. The blot from b was stripped and re-probed with a monoclonal β-actin antibody.
as §4

LMP-1 [6] = assay: Immunoblot of LMP-1 in C15 tumors; type: in vivo, EBV; conditions: intra-tumoral Cidofovir 50 mg/kg/day for 5 days, day 7
Procedure: as §1
(§8) b, RAJI cells were cultured in the presence or absence of Ciodofovir (10 μg/ml). At 48 hrs, cells were harvested and analyzed for the expression of LMP1, bcl-2 and bax by Western-blot. For C15, at day 7 portions of tumors where lysed in RIPA buffer and protein extracts were immunoblotted with anti-LMP-1 antibody. The blot from b was stripped and re-probed with a monoclonal β-actin antibody.
To prepare total proteins, cells lysates were extracted with lysis buffer 50 mM tris, pH 8, 120 mM NaCl, 0,1% SDS, and 0,5% NP-40. The protein concentration in the soluble fraction was determined by using a BioRad protein assay reagent. The viral oncoprotein LMP1 was detected by immunoblotting with a monoclonal anti-LMP1 antibody (clone CS1,CS2,CS3 & CS4 cocktail, RDI). […]

Bcl2 = assay: Western blot of Bcl2 in EBV+ cells; type: cell-based, human; conditions: Cidofovir 10 μg/ml, 48 hrs
Procedure: as §8, §4

[7] = system: Ramos, HTB31, and SCC97 cells; assay: Clonogenic survival and proliferation test with irradiation, non virus-containing cells; type: cell-based, human; conditions: cidofovir 1 to 10 μg/ml combined with irradiation, non virus-related cells
Procedure: as §5, §6, §7

[8] = system: non-virally induced tumors; assay: Tumor growth of non-virally induced human xenografts in nude mice; type: in vivo; conditions: cidofovir intra-tumor 60 mg/kg daily 5 days + irradiation 7 Gy on day 3 and 5
Procedure: (§9) In vivo data are reported as the percentage of original (day 0) tumor volume and plotted as fractional tumor volume±S.E. Statistical significance was determined by Kruskal/Wallis and Mann-Withney U tests.
(§10) Female Swiss nu/nu mice were housed throughout experiments in sterile isolators and fed ad libitum with irradiated food (UAR, Villemoisson/Orge, France) and filtered water. Experiments were performed according to the regulation n°86/609/CEE of the European Community. Cell lines were established in vivo in Swiss athymic mice by subcutaneous injection in the right flank of 5×10^6 cells per animal and subsequently maintained in vivo by sequential passages in animals aged 6 to 8 weeks. Nude mice bearing 500-1000 mm3 tumors were used for in vivo experiments. Two types of control were used including both injection of PBS (intra-tumor and intravenous (IV)), irradiation alone, or chemotherapy alone.
Irradiation of cells was performed using a ^137Cs γ-rays source at a dose rate of 1.45 Gy.min^−1. […] Quantification of radiosensitivity was obtained by the surviving fraction at 2 Gy (SF2). Cell survival was also assessed by using proliferation tests (incorporation of tritiated thymidine and MTT). […]
The example presented herewith also relates to the combination of cidofovir with irradiation which was evaluated in vivo in various human viral-associated and also in non viral associated human cancers. […]

E6 [9] = assay: Immunoblot densitometry of E6 in HEP2 cells; type: cell-based, HPV; conditions: HEP2, Cidofovir 10 μg/ml, scored 1 without Cidofovir
Procedure: as §3, §4

E6 [10] = assay: Immunoblot densitometry of E6 in HTB33 cells; type: cell-based, HPV; conditions: HTB33, Cidofovir 10 μg/ml, scored 1 without Cidofovir
Procedure: as §3, §4

[11] = system: cell lines derived from human cervical carcinoma; conditions: cited from earlier work
HPV+ tumors = assay: Histological sections of HPV+ tumors; type: in vivo, mice; conditions: Cidofovir combined with irradiation, 2 HPV+ models (data not shown)
From the text: At 10 day after treatment, mice with HPV+ tumors from all groups were sacrified and tumors were excised and fixed in 10% neutral buffered formalin (NBF). The sections from each group were heamatoxylin and eosin (H&E)-stained for histological analysis.

Bax = assay: Western blot of Bax in EBV+ cells; type: cell-based, human; conditions: Cidofovir 10 μg/ml, 48 hrs
Procedure: as §8, §4

[12] = system: C15, Raji, HEP2, HTB33 tumor xenografts; assay: Tumor growth of virus-positive human xenografts in nude mice; type: in vivo
Procedure: as §9, §10, §5
The example presented herewith also relates to the combination of cidofovir with irradiation which was evaluated in vivo in various human viral-associated and also in non viral associated human cancers. The effect of cidofovir alone or combined with irradiation was studied in vivo in nude mice bearing 500-1000 mm3 tumor xenografts. The treatment consisted of 60 mg/kg daily of cidofovir intra-tumor injection for 5 days. In the combined group, irradiation (7 Gy) was performed on day 3 and 5 of cidofovir.

Nc1ccn(C[C@@H](CO)OCP(=O)(O)O)c(=O)n1 [Cidofovir, (S)-1-[3-hydroxy-2-(phosphonomethoxy)propyl]cytosine]
apoptosis (C15 tumors): marked increase
effect on tumor cell growth in combination with VP16 (human cancer cells; VP16 5 μg/ml): synergic inhibitory effect
effect on tumor cell growth in combination with cis platinum (human cancer cells; cis platinum 2.5 μg/ml): synergic inhibitory effect
radiation-induced DNA repair at the chromosomal level (EBV and HPV cancer cells): no significant change
apoptosis (RAJI cells): marked increase
tumor growth ([1]; administered topically or systemically, nontoxic concentrations): no reduction of tumor growth
tumor size ([1]; injected intratumorally, compared to placebo group): statistically significant reduction in tumor size
P53 density score (p53 [2]; 3 days): 2.1
P53 density score (p53 [2]; 6 days): 3.7
radiosensitization (decrease of SF2, surviving fraction at 2 Gy) [3]: increased cell kill
radiosensitization (decrease of SF2, surviving fraction at 2 Gy) ([3]; listed as cidofovir): pronounced radiosensitization
expression of the viral oncoprotein E7 (E7): decreased expression
P53 density score (p53 [4]; 3 days): 1.2
P53 density score (p53 [4]; 6 days): 1.65
LMP-1 expression (LMP-1 [5]; 24 hours after exposure (data not shown)): significant inhibition
LMP-1 expression (LMP-1 [5]; RAJI cells, Cidofovir 10 μg/ml, 48 hrs): marked decrease
LMP-1 expression (LMP-1 [6]): marked decrease
Bcl2 expression (Bcl2): downregulation
radiosensitization (cell survival) [7]: increased cell kill
radiosensitization (cell survival) ([7]; listed as cidofovir): markedly radiosensitized
tumor growth [8]: dramatically reduced the growth delay
E6 band density score (E6 [9]; 3 days): 0.7
E6 band density score (E6 [9]; 6 days): 0.25
E6 band density score (E6 [10]; 3 days): 0.67
E6 band density score (E6 [10]; 6 days): 0.32
cell proliferation [11]: inhibited in a concentration-dependent and in a time-dependent fashion
tumor necrosis (histological sections) (HPV+ tumors): increased tumor necrosis
Bax expression (Bax): up-regulation
anti-tumor effect, sub-cutaneous versus intra-tumor administration ([12]; C15, sub-cutaneous 50 mg/kg cidofovir in combination with irradiation): anti-tumor effect of the same magnitude
tumor growth delay ([12]; cidofovir alone, 60 mg/kg daily intra-tumor for 5 days): weak growth delay
tumor growth ([12]; cidofovir intra-tumor 60 mg/kg daily 5 days + irradiation 7 Gy on day 3 and 5): dramatically reduced the growth delay; also recorded: major effect on tumor growth
complete remission of tumors ([12]; combined treatment, 30 to 40 days after the treatment): nearly all the tumors were found to be in complete remission
